In ChEMBL document CHEMBL4507316 (2021):

What was measured:
[1] = biological target: Alpha-1B adrenergic receptor (Homo sapiens) (UniProt P35368); details: Compound concentration 10.0 uM
[2] = biological target: Fibroblast growth factor receptor 1 (Homo sapiens) (UniProt P11362); experiment: FGF-R1 wt ProQinase selectivity panel; details: Compound concentration 1.0 uM
[3] = system: RAF proto-oncogene serine/threonine-protein kinase (Homo sapiens), P04049 [Y340D,Y341D]; experiment: RAF1 Y340D/Y341D ProQinase selectivity panel; details: Compound concentration 1.0 uM
[4] = biological target: Cytoplasmic tyrosine-protein kinase BMX (Homo sapiens) (UniProt P51813); experiment: BMX ProQinase selectivity panel; details: Compound concentration 1.0 uM
[5] = biological target: Dual specificity mitogen-activated protein kinase kinase 1 (Homo sapiens) (UniProt Q02750); experiment: MEK1 ProQinase selectivity panel; details: Compound concentration 1.0 uM
[6] = biological target: Serine/threonine-protein kinase PLK2 (Homo sapiens) (UniProt Q9NYY3); experiment: SNK ProQinase selectivity panel; details: Compound concentration 1.0 uM
[7] = biological target: Alpha-1A adrenergic receptor (Homo sapiens) (UniProt P35348); details: Compound concentration 10.0 uM
Chain of Alpha-1A adrenergic receptor (Homo sapiens) (P35348 whole entry): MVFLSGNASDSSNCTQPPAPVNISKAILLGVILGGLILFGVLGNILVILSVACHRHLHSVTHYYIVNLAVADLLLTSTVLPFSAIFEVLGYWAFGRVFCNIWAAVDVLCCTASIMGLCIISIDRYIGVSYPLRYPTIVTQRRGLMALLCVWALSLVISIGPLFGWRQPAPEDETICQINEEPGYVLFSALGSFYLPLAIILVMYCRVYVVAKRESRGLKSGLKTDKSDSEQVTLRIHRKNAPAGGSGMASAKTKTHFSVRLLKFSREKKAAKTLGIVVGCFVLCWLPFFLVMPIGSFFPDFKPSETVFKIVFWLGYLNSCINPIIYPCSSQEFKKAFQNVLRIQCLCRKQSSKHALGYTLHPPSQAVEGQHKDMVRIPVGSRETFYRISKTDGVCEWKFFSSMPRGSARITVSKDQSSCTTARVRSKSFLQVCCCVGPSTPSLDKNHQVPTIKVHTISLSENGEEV

[8] = biological target: Interleukin-1 receptor-associated kinase 1 (Homo sapiens) (UniProt P51617); experiment: IRAK1 ProQinase selectivity panel; details: Compound concentration 1.0 uM
[9] = biological target: Fibroblast growth factor receptor 3 (Homo sapiens) (UniProt P22607); experiment: FGF-R3 wt ProQinase selectivity panel; details: Compound concentration 1.0 uM
[10] = biological target: Ephrin type-B receptor 1 (Homo sapiens) (UniProt P54762); experiment: EPHB1 ProQinase selectivity panel; details: Compound concentration 1.0 uM
[11] = system: Epidermal growth factor receptor (Homo sapiens), P00533 [UNDEFINED MUTATION]; experiment: EGF-R d747-752/P753S ProQinase selectivity panel; details: Compound concentration 1.0 uM
[12] = system: Fibroblast growth factor receptor 1 (Homo sapiens), P11362 [V561M]; experiment: FGF-R1 V561M ProQinase selectivity panel; details: Compound concentration 1.0 uM
Chain of Fibroblast growth factor receptor 1 (Homo sapiens), P11362 [V561M] (P11362 whole entry V561M): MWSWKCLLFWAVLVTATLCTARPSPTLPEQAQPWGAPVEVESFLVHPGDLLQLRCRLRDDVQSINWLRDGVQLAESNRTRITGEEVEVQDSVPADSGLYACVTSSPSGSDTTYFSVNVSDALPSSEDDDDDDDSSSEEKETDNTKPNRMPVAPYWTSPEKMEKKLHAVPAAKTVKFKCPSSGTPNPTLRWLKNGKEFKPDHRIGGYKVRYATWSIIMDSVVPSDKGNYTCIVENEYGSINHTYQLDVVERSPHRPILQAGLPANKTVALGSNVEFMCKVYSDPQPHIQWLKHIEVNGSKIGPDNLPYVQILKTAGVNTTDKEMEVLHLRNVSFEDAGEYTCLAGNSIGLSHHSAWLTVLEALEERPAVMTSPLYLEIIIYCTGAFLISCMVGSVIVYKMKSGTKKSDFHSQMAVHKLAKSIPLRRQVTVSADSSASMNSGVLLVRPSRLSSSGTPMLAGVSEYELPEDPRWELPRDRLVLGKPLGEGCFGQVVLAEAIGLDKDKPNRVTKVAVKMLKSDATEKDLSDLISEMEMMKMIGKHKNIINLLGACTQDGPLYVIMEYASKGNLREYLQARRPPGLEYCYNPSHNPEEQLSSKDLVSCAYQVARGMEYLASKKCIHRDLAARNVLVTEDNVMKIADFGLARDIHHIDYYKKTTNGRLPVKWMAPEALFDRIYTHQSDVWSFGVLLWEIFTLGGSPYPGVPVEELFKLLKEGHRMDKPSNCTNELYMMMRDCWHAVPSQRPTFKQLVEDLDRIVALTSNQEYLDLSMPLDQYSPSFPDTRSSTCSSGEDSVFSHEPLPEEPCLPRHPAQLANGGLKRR

[13] = biological target: Myotonin-protein kinase (Homo sapiens) (UniProt Q09013); experiment: DMPK ProQinase selectivity panel; details: Compound concentration 1.0 uM
[14] = system: Epidermal growth factor receptor (Homo sapiens), P00533 [T790M]; experiment: EGF-R T790M ProQinase selectivity panel; details: Compound concentration 1.0 uM
[15] = biological target: Ephrin type-A receptor 4 (Homo sapiens) (UniProt P54764); experiment: EPHA4 ProQinase selectivity panel; details: Compound concentration 1.0 uM
[16] = biological target: Serine/threonine-protein kinase N2 (Homo sapiens) (UniProt Q16513); experiment: PRK2 ProQinase selectivity panel; details: Compound concentration 1.0 uM
[17] = biological target: 5-hydroxytryptamine receptor 5A (Homo sapiens) (UniProt P47898); details: Compound concentration 10.0 uM
[18] = biological target: G protein-coupled receptor kinase 4 (Homo sapiens) (UniProt P32298); experiment: GRK4 ProQinase selectivity panel; details: Compound concentration 1.0 uM
[19] = biological target: Serine/threonine-protein kinase D2 (Homo sapiens) (UniProt Q9BZL6); experiment: PRKD2 ProQinase selectivity panel; details: Compound concentration 1.0 uM
[20] = biological target: CDK7/Cyclin H/MNAT1 (Homo sapiens) (UniProt P51946+P50613+P51948); experiment: CDK7/CycH/MAT1 ProQinase selectivity panel; assay type: protein-complex assay; details: Compound concentration 1.0 uM
[21] = biological target: Mitogen-activated protein kinase 1 (Homo sapiens) (UniProt P28482); experiment: ERK2 ProQinase selectivity panel; details: Compound concentration 1.0 uM
[22] = biological target: Tyrosine-protein kinase Lck (Homo sapiens) (UniProt P06239); experiment: LCK ProQinase selectivity panel; details: Compound concentration 1.0 uM
[23] = biological target: Serine/threonine-protein kinase SIK2 (Homo sapiens) (UniProt Q9H0K1); experiment: SNF1LK2 ProQinase selectivity panel; details: Compound concentration 1.0 uM
[24] = biological target: Calcium/calmodulin-dependent protein kinase type II subunit alpha (Homo sapiens) (UniProt Q9UQM7); experiment: CAMK2A ProQinase selectivity panel; details: Compound concentration 1.0 uM
[25] = biological target: Kappa-type opioid receptor (Homo sapiens) (UniProt P41145); details: Compound concentration 10.0 uM
[26] = system: Platelet-derived growth factor receptor alpha (Homo sapiens), P16234 [T674I]; experiment: PDGFR-alpha T674I ProQinase selectivity panel; details: Compound concentration 1.0 uM
Chain of Platelet-derived growth factor receptor alpha (Homo sapiens), P16234 [T674I] (P16234 whole entry T674I): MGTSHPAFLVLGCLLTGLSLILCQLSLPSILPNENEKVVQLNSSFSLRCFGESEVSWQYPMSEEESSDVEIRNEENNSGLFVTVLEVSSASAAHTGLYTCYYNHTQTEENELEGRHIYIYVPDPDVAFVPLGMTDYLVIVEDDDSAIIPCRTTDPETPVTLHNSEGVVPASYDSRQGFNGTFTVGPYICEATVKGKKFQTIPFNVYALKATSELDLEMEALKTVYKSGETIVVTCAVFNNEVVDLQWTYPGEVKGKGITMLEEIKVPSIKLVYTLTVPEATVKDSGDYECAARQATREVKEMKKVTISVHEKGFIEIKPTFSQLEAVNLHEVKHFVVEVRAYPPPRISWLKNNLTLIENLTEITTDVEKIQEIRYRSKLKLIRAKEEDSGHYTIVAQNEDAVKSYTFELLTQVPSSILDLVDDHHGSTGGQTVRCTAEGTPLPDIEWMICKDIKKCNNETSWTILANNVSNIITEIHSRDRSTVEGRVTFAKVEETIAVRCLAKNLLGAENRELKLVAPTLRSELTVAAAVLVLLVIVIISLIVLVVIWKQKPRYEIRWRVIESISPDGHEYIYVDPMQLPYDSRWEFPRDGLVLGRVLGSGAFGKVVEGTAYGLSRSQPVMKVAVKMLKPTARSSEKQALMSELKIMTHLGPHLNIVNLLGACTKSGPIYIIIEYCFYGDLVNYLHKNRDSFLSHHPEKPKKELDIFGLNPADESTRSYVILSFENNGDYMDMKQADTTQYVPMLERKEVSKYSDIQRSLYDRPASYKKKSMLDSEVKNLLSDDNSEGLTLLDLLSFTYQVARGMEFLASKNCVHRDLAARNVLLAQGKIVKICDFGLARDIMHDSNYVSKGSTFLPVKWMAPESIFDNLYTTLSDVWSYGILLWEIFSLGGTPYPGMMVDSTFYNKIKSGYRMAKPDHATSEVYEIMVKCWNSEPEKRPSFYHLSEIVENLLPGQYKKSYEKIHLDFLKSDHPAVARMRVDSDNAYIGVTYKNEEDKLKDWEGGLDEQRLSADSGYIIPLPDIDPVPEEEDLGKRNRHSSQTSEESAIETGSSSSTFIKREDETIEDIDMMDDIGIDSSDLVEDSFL

[27] = biological target: Leukocyte tyrosine kinase receptor (Homo sapiens) (UniProt P29376); experiment: LTK ProQinase selectivity panel; details: Compound concentration 1.0 uM
[28] = biological target: Muscarinic acetylcholine receptor M4 (Homo sapiens) (UniProt P08173); details: Compound concentration 10.0 uM
[29] = biological target: MAP kinase-activated protein kinase 3 (Homo sapiens) (UniProt Q16644); experiment: MAPKAPK3 ProQinase selectivity panel; details: Compound concentration 1.0 uM
[30] = biological target: 5-hydroxytryptamine receptor 3A (Homo sapiens) (UniProt P46098); details: Compound concentration 10.0 uM
[31] = biological target: Tyrosine-protein kinase BTK (Homo sapiens) (UniProt Q06187); experiment: BTK ProQinase selectivity panel; details: Compound concentration 1.0 uM
[32] = biological target: Eukaryotic translation initiation factor 2-alpha kinase 3 (Homo sapiens) (UniProt Q9NZJ5); experiment: EIF2AK3 ProQinase selectivity panel; details: Compound concentration 1.0 uM
Chain of Eukaryotic translation initiation factor 2-alpha kinase 3 (Homo sapiens) (Q9NZJ5 whole entry): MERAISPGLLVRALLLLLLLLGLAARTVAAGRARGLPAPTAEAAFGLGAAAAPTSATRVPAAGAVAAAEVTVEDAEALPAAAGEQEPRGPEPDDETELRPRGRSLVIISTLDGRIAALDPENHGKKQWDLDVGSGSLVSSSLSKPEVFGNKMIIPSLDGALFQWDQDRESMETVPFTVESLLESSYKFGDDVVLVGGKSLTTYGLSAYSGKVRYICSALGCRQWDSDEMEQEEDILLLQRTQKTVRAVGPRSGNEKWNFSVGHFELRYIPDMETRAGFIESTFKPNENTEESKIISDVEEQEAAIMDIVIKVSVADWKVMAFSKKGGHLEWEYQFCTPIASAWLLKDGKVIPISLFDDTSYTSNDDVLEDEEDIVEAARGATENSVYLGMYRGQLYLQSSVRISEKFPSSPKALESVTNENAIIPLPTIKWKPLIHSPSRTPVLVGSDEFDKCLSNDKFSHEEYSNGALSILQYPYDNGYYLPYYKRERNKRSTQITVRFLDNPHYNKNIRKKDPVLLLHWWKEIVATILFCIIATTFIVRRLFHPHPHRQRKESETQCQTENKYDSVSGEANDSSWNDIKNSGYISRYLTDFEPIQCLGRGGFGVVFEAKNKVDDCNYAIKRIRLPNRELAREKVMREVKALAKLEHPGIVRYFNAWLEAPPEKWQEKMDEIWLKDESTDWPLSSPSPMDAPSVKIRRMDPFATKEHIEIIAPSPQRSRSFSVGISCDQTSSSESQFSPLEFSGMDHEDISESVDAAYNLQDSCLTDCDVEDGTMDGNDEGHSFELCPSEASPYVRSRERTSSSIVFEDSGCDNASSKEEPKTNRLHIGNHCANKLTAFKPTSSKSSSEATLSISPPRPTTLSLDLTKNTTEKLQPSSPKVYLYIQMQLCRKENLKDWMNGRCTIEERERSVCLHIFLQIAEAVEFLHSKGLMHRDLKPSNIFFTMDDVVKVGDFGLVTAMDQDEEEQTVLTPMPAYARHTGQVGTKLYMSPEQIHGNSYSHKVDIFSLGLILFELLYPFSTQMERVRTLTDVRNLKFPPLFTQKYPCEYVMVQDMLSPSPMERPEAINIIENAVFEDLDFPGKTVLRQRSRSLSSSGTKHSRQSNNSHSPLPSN

[33] = biological target: Aurora kinase A (Homo sapiens) (UniProt O14965); experiment: Aurora-A ProQinase selectivity panel; details: Compound concentration 1.0 uM
Chain of Aurora kinase A (Homo sapiens) (O14965 whole entry): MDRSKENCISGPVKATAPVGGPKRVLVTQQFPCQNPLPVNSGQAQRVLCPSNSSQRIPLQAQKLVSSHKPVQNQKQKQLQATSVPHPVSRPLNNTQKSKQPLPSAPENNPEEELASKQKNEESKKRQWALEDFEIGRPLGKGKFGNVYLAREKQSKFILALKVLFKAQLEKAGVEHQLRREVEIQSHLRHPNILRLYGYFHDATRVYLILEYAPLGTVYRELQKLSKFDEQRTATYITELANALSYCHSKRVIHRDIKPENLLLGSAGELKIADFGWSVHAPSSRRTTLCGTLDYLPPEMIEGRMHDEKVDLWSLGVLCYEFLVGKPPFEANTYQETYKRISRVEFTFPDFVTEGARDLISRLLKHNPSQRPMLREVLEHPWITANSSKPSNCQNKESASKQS

[34] = biological target: D(4) dopamine receptor (Homo sapiens) (UniProt P21917); details: Compound concentration 10.0 uM
[35] = biological target: Serine/threonine-protein kinase Nek2 (Homo sapiens) (UniProt P51955); experiment: NEK2 ProQinase selectivity panel; details: Compound concentration 1.0 uM
[36] = biological target: RAC-gamma serine/threonine-protein kinase (Homo sapiens) (UniProt Q9Y243); experiment: AKT3 ProQinase selectivity panel; details: Compound concentration 1.0 uM
[37] = biological target: Serine/threonine-protein kinase PLK1 (Homo sapiens) (UniProt P53350); experiment: PLK1 ProQinase selectivity panel; details: Compound concentration 1.0 uM
[38] = biological target: Tyrosine-protein kinase receptor TYRO3 (Homo sapiens) (UniProt Q06418); experiment: TYRO3 ProQinase selectivity panel; details: Compound concentration 1.0 uM
[39] = biological target: LIM domain kinase 2 (Homo sapiens) (UniProt P53671); experiment: LIMK2 ProQinase selectivity panel; details: Compound concentration 1.0 uM
[40] = biological target: Mitogen-activated protein kinase kinase kinase kinase 5 (Homo sapiens) (UniProt Q9Y4K4); experiment: MAP4K5 ProQinase selectivity panel; details: Compound concentration 1.0 uM
[41] = biological target: Testis-specific serine/threonine-protein kinase 1 (Homo sapiens) (UniProt Q9BXA7); experiment: TSSK1 ProQinase selectivity panel; details: Compound concentration 1.0 uM
Chain of Testis-specific serine/threonine-protein kinase 1 (Homo sapiens) (Q9BXA7 whole entry): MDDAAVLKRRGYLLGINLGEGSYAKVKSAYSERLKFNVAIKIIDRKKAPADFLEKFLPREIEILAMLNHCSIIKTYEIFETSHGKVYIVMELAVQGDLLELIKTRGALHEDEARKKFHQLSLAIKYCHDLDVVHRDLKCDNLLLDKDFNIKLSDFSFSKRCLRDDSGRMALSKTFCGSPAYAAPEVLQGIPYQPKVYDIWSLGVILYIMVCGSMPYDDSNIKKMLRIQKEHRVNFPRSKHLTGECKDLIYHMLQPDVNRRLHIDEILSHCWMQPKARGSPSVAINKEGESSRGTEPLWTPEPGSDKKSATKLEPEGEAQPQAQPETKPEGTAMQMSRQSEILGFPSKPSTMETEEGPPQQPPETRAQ

[42] = biological target: Ribosomal protein S6 kinase alpha-4 (Homo sapiens) (UniProt O75676); experiment: RPS6KA4 ProQinase selectivity panel; details: Compound concentration 1.0 uM
[43] = biological target: Serine/threonine-protein kinase Nek9 (Homo sapiens) (UniProt Q8TD19); experiment: NEK9 ProQinase selectivity panel; details: Compound concentration 1.0 uM
[44] = biological target: Histamine H1 receptor (Homo sapiens) (UniProt P35367); details: Compound concentration 10.0 uM
[45] = biological target: Muscle, skeletal receptor tyrosine-protein kinase (Homo sapiens) (UniProt O15146); experiment: MUSK ProQinase selectivity panel; details: Compound concentration 1.0 uM
[46] = biological target: Serine/threonine-protein kinase TBK1 (Homo sapiens) (UniProt Q9UHD2); experiment: TBK1 ProQinase selectivity panel; details: Compound concentration 1.0 uM
[47] = biological target: Dual specificity mitogen-activated protein kinase kinase 2 (Homo sapiens) (UniProt P36507); experiment: MEK2 ProQinase selectivity panel; details: Compound concentration 1.0 uM
[48] = biological target: Cyclin-dependent kinase 1/cyclin B (Homo sapiens) (UniProt P06493+P14635+Q8WWL7+O95067); experiment: CDK1/CycB1 ProQinase selectivity panel; assay type: protein-complex assay; details: Compound concentration 1.0 uM

Chain of Alpha-1B adrenergic receptor (Homo sapiens) (P35368 whole entry): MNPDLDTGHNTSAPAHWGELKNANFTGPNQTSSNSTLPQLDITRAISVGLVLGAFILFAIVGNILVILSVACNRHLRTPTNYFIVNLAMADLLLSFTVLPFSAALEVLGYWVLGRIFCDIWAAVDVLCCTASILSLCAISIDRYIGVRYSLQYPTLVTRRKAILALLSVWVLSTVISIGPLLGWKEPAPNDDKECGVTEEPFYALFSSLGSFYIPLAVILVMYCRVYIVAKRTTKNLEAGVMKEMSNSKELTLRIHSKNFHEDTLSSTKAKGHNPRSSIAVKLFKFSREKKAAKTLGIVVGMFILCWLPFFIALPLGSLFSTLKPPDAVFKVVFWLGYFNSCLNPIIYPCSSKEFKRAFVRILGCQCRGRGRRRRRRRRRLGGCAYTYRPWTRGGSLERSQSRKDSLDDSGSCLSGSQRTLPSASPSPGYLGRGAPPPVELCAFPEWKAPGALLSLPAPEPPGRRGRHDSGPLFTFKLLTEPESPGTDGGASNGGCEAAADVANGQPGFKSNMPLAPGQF

- inhibition [1]: 5.52%
- % Residual activity with Skepinone-L [2]: 117%
- % Residual activity with Skepinone-L [3]: 91%
- % Residual activity with Skepinone-L [4]: 108%
- % Residual activity with Skepinone-L [5]: 79%
- % Residual activity with Skepinone-L [6]: 103%
- inhibition [7]: 21.8%
- % Residual activity with Skepinone-L [8]: 101%
- % Residual activity with Skepinone-L [9]: 102%
- % Residual activity with Skepinone-L [10]: 116%
- % Residual activity with Skepinone-L [11]: 93%
- % Residual activity with Skepinone-L [12]: 89%
- % Residual activity with Skepinone-L [13]: 99%
- % Residual activity with Skepinone-L [14]: 119%
- % Residual activity with Skepinone-L [15]: 93%
- % Residual activity with Skepinone-L [16]: 95%
- inhibition [17]: 13.8%
- % Residual activity with Skepinone-L [18]: 100%
- % Residual activity with Skepinone-L [19]: 85%
- % Residual activity with Skepinone-L [20]: 107%
- % Residual activity with Skepinone-L [21]: 83%
- % Residual activity with Skepinone-L [22]: 102%
- % Residual activity with Skepinone-L [23]: 86%
- % Residual activity with Skepinone-L [24]: 83%
- inhibition [25]: -4%
- % Residual activity with Skepinone-L [26]: 97%
- % Residual activity with Skepinone-L [27]: 97%
- inhibition [28]: -3.22%
- % Residual activity with Skepinone-L [29]: 95%
- inhibition [30]: 6.53%
- % Residual activity with Skepinone-L [31]: 100%
- % Residual activity with Skepinone-L [32]: 95%
- % Residual activity with Skepinone-L [33]: 99%
- inhibition [34]: 9.38%
- % Residual activity with Skepinone-L [35]: 85%
- % Residual activity with Skepinone-L [36]: 94%
- % Residual activity with Skepinone-L [37]: 97%
- % Residual activity with Skepinone-L [38]: 108%
- % Residual activity with Skepinone-L [39]: 100%
- % Residual activity with Skepinone-L [40]: 84%
- % Residual activity with Skepinone-L [41]: 90%
- % Residual activity with Skepinone-L [42]: 107%
- inhibition [44]: 12.7%
- % Residual activity with Skepinone-L [45]: 106%
- % Residual activity with Skepinone-L [46]: 87%
- % Residual activity with Skepinone-L [47]: 99%
- % Residual activity with Skepinone-L [48]: 83%
Structure (SMILES): O=C1c2ccc(Nc3ccc(F)cc3F)cc2CCc2ccc(OC[C@H](O)CO)cc21 [Skepinone-L]
- % Residual activity with Skepinone-L [43]: 104%
